Measured values published in ChEMBL document CHEMBL3045659, “Molecular docking studies on analogues of quercetin with d-alanine:d-alanine ligase of Helicobacter pylori” (Med Chem Res, 2013).
pIC50, pKd, pKi: −log10 of the molar value. ≈ marks a conversion by molar mass, not a printed value.

What was measured:
Escherichia coli [1] = assay: Antibacterial activity against Escherichia coli 25922 assessed as growth inhibition; format: functional
Helicobacter pylori [2] = assay: Antibacterial activity against Helicobacter pylori 43504 assessed as growth inhibition; format: functional
Escherichia coli [3] = assay: Antibacterial activity against Escherichia coli JM019 assessed as growth inhibition; format: functional
Helicobacter pylori [4] = assay: Antibacterial activity against Helicobacter pylori SS1 assessed as growth inhibition; format: functional
[5] = molecular target: T1, D-alanine--D-alanine ligase (Helicobacter pylori (strain HPAG1), UniProt Q1CTD3); assay: Competitive inhibition of Helicobacter pylori Ddl using ATP as substrate
T1 sequence (Q1CTD3 whole entry): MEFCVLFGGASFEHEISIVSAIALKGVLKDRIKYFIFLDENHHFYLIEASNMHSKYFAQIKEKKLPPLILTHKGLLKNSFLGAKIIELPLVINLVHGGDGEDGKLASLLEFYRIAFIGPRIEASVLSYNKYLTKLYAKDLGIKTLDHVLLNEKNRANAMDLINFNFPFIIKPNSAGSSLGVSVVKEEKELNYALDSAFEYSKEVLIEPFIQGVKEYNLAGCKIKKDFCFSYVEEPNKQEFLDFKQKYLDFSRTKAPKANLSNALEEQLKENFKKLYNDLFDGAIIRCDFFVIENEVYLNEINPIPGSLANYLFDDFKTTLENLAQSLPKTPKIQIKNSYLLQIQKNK

[6] = molecular target: D-alanine--D-alanine ligase B (Escherichia coli K-12, UniProt P07862); assay: Competitive inhibition of Escherichia coli DdlB using ATP as substrate
[7] = molecular target: T1, D-alanine--D-alanine ligase; assay: Binding affinity to Helicobacter pylori Ddl by surface plasmon resonance biosensor technology

Row | Structure (SMILES) | MIC (Escherichia coli [1]) [µg/mL] | MIC (Helicobacter pylori [2]) [µg/mL] | MIC (Escherichia coli [3]) [µg/mL] | MIC (Helicobacter pylori [4]) [µg/mL] | pIC50 [5] | pKi [5] | pIC50 [6] | pKd [7]
1 | O=c1cc(-c2ccc(O)cc2)oc2cc(O)cc(O)c12 [APIGENIN] | > 200 | 25 (≈ 92.5 µM) | 200 (≈ 740 µM) | 25 (≈ 92.5 µM) | 3.88 | 4.51 | 3.79 | 
2 | O=c1c(O)c(-c2ccc(O)c(O)c2)oc2cc(O)cc(O)c12 [QUERCETIN] | 300 (≈ 993 µM) | 100 (≈ 331 µM) | 300 (≈ 993 µM) | 200 (≈ 662 µM) | 4.31 | 5.37 | 4.70 | 4.89
